Columns and labels:
[1] = biological target: T1, G protein-coupled receptor kinase 3 (Homo sapiens) (UniProt P35626); details: Compound concentration 1000.0 nM
T1 sequence (whole entry): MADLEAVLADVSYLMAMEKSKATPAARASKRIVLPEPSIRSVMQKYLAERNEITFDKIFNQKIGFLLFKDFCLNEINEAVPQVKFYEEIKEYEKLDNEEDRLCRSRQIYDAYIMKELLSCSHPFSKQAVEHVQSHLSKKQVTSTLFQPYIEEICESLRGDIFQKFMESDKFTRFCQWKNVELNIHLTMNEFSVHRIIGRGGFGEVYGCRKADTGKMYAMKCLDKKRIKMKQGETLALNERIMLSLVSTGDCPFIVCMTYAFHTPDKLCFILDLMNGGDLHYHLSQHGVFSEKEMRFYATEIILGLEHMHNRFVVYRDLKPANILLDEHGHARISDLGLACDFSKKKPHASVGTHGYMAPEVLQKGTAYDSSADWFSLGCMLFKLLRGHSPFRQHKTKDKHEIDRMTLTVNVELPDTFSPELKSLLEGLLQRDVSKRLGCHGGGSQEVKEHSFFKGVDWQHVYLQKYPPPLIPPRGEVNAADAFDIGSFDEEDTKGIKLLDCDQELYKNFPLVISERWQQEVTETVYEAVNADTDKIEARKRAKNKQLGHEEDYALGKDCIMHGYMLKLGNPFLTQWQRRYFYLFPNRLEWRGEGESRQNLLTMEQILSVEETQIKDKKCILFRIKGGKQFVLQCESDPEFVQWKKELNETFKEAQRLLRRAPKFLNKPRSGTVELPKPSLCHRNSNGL

[2] = tested on: Hepatocyte growth factor receptor (Homo sapiens), P08581 [Y1235D]; details: Compound concentration 1000.0 nM
[3] = biological target: Dual specificity protein kinase CLK2 (Homo sapiens) (UniProt P49760); details: Compound concentration 1000.0 nM
Sequence of Dual specificity protein kinase CLK2 (Homo sapiens) (P49760 whole entry, looked up): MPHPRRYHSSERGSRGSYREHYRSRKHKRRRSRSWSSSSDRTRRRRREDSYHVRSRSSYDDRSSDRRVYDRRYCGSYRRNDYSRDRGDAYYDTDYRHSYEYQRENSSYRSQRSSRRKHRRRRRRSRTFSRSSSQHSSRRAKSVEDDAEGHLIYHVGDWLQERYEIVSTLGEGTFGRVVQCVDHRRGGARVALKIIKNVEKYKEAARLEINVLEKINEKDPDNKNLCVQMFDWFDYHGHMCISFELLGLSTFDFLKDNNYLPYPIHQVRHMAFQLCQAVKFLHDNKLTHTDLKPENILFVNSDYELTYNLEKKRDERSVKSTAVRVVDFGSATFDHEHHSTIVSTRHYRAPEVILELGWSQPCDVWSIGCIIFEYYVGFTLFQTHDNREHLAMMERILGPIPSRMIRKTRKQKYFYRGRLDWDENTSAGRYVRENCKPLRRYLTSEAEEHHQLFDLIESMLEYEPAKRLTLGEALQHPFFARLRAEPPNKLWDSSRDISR

[4] = biological target: Wee1-like protein kinase 2 (Homo sapiens) (UniProt P0C1S8); details: Compound concentration 1000.0 nM
[5] = biological target: Mitogen-activated protein kinase kinase kinase 3 (Homo sapiens) (UniProt Q99759); details: Compound concentration 1000.0 nM
Sequence of Mitogen-activated protein kinase kinase kinase 3 (Homo sapiens) (Q99759 whole entry): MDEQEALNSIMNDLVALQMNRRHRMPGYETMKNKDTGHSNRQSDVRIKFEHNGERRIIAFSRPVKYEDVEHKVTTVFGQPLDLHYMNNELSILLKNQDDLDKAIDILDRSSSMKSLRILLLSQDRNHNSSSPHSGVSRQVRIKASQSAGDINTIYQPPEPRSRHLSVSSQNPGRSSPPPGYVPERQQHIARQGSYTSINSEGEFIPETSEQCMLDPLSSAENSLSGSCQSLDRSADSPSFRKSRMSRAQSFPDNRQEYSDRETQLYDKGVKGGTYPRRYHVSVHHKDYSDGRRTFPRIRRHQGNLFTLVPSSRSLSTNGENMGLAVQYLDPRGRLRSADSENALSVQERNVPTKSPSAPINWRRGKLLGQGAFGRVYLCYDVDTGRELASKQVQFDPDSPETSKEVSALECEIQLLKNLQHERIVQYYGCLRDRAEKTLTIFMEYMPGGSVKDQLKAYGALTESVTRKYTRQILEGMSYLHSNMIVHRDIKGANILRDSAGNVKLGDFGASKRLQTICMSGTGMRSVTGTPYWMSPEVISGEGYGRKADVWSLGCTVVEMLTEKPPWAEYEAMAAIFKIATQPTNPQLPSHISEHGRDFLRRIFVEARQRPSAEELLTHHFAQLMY

[6] = biological target: T2, Activin receptor type-1 (Homo sapiens) (UniProt Q04771); details: Compound concentration 1000.0 nM
T2 sequence (whole entry): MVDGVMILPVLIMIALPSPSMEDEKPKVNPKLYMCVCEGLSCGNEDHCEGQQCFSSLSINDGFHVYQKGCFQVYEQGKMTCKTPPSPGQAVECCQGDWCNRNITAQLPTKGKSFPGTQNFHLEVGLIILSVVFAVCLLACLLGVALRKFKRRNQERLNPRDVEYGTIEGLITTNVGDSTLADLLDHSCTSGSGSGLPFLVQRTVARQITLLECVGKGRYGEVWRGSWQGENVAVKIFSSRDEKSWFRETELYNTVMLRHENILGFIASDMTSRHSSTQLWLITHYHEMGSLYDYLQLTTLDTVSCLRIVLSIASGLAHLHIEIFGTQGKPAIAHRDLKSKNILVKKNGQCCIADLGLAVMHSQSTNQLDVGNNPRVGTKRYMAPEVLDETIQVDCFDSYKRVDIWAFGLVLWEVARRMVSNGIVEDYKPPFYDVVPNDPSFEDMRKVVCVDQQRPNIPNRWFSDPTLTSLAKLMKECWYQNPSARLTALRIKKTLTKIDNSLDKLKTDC

[7] = biological target: Serine/threonine-protein kinase DCLK1 (Homo sapiens) (UniProt O15075); details: Compound concentration 1000.0 nM
Sequence of Serine/threonine-protein kinase DCLK1 (Homo sapiens) (O15075 whole entry, canonical isoform): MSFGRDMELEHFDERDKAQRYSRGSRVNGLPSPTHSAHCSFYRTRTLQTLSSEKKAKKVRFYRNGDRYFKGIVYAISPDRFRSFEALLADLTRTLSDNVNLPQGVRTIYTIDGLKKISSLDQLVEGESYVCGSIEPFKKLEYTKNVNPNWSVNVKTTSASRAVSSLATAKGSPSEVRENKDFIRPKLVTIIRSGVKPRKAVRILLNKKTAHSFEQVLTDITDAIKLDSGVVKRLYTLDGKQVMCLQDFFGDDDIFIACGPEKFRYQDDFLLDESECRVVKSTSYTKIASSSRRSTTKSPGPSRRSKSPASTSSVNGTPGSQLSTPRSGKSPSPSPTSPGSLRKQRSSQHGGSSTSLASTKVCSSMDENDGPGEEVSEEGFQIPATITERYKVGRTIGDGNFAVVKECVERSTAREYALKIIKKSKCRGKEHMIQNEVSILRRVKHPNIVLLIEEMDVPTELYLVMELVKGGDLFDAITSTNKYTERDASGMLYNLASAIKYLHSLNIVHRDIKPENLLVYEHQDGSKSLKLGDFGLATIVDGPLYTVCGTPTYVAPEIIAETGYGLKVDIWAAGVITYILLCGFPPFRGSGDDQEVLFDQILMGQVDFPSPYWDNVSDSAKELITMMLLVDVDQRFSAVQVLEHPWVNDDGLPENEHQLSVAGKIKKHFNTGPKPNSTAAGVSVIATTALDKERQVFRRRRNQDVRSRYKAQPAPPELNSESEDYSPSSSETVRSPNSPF

[8] = tested on: Phosphatidylinositol 4,5-bisphosphate 3-kinase catalytic subunit alpha isoform (Homo sapiens), P42336 [H1047Y]; details: Compound concentration 1000.0 nM
Sequence of Phosphatidylinositol 4,5-bisphosphate 3-kinase catalytic subunit alpha isoform (Homo sapiens), P42336 [H1047Y] (P42336 whole entry H1047Y, canonical isoform): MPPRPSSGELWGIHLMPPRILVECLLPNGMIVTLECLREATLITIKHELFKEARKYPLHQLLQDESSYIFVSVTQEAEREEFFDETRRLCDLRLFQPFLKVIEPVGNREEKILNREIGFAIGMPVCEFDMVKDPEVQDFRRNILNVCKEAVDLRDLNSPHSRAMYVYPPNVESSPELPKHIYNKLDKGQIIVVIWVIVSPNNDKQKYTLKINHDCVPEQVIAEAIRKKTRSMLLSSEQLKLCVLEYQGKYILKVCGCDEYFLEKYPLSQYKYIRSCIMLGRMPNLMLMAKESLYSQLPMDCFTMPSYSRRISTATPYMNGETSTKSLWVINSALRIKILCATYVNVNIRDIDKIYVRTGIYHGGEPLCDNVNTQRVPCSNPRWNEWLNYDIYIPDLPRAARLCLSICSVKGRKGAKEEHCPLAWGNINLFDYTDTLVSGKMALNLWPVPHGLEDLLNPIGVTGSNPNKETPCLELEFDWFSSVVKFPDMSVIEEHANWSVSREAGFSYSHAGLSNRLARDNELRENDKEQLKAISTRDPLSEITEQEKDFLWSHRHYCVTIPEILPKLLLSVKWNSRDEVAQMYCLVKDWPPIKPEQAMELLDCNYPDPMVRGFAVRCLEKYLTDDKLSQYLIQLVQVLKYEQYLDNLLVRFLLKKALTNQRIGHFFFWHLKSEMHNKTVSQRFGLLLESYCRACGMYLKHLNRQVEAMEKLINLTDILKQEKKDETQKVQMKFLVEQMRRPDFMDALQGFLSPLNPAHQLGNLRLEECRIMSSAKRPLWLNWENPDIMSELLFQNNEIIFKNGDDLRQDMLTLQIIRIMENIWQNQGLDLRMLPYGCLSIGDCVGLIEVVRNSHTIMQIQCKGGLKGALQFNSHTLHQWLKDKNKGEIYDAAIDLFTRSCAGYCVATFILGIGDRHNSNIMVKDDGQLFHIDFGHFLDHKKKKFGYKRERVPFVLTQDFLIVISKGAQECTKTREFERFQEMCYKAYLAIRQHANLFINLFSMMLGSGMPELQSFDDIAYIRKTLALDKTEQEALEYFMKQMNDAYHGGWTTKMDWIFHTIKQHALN

[9] = biological target: STE20-like serine/threonine-protein kinase (Homo sapiens) (UniProt Q9H2G2); details: Compound concentration 1000.0 nM
[10] = biological target: Ribosomal protein S6 kinase alpha-5 (Homo sapiens, UniProt O75582); details: Compound concentration 1000.0 nM
Sequence of Ribosomal protein S6 kinase alpha-5 (O75582 whole entry, looked up): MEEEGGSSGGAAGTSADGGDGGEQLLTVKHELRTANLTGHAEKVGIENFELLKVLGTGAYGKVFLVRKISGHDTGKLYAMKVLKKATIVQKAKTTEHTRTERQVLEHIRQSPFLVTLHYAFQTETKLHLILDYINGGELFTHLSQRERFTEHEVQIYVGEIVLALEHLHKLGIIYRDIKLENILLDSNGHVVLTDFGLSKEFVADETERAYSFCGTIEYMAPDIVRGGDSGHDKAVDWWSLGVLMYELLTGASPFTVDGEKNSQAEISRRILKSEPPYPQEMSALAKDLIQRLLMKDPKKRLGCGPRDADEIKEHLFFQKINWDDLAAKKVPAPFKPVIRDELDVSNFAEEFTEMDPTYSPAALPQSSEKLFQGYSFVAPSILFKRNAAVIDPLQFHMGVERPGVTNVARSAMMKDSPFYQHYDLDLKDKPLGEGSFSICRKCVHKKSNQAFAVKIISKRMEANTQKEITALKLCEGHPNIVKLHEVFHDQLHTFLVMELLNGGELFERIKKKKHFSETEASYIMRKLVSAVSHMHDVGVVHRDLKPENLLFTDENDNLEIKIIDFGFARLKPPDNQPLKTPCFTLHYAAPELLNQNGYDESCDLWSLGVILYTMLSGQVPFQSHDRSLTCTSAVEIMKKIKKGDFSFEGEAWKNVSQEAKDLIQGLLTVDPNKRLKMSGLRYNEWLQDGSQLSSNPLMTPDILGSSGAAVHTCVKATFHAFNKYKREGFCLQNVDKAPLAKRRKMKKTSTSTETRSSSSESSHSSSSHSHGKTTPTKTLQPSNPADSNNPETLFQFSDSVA

[11] = biological target: Myosin light chain kinase family member 4 (Homo sapiens) (UniProt Q86YV6); details: Compound concentration 1000.0 nM
Sequence of Myosin light chain kinase family member 4 (Homo sapiens) (Q86YV6 whole entry): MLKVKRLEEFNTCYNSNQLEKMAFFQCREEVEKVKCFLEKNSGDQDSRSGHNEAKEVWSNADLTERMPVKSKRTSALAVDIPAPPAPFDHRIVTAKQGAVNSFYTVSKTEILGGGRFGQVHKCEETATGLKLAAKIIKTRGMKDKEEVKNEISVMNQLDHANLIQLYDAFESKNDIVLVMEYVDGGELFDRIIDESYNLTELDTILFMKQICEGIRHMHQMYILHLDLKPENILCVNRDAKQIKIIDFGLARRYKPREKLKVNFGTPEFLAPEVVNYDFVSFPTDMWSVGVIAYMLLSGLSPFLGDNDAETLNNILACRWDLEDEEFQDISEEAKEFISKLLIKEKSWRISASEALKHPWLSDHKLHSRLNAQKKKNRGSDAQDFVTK

[12] = biological target: T3, Testis-specific serine/threonine-protein kinase 1 (Homo sapiens) (UniProt Q9BXA7); details: Compound concentration 1000.0 nM
T3 sequence (whole entry): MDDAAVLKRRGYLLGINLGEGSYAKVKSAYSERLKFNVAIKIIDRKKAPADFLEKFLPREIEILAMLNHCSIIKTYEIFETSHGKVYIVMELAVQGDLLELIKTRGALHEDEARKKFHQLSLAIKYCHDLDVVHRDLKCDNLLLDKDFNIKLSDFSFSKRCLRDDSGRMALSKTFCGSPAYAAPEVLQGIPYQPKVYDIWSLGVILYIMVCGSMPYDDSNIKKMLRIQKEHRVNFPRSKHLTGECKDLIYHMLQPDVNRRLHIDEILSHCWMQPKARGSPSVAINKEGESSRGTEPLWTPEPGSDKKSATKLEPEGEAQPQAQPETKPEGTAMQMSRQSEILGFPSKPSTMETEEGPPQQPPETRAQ

[13] = biological target: Cyclin-dependent kinase 8 (Homo sapiens) (UniProt P49336); details: Compound concentration 1000.0 nM
Sequence of Cyclin-dependent kinase 8 (Homo sapiens) (P49336 whole entry): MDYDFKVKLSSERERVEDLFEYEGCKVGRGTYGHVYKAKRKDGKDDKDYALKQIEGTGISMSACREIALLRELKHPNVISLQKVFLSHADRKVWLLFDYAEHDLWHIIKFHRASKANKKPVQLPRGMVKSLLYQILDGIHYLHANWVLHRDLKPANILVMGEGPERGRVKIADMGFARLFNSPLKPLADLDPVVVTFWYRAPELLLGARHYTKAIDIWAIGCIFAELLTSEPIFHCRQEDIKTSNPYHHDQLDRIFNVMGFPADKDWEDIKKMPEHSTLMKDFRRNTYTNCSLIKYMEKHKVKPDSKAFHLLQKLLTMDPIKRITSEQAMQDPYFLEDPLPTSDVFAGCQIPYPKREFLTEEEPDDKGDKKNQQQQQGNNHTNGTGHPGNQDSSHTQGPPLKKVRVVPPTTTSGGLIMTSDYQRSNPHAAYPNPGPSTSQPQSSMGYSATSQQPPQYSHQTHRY

[14] = biological target: Receptor-interacting serine/threonine-protein kinase 1 (Homo sapiens) (UniProt Q13546); details: Compound concentration 1000.0 nM
[15] = biological target: Sigma intracellular receptor 2 (Homo sapiens, UniProt Q5BJF2); assay: GPCRScan assay: inhibition of Sigma 2; parameters: radioligand conc. used [nm] 5.0, parental cells HEKT
Sequence of Sigma intracellular receptor 2 (Q5BJF2 whole entry, canonical isoform): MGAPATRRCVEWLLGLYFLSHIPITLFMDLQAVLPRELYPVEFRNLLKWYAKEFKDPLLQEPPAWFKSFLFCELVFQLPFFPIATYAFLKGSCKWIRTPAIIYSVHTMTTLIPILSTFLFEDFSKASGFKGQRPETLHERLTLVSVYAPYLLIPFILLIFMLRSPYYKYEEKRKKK

[16] = biological target: Phosphatidylinositol 4,5-bisphosphate 3-kinase catalytic subunit beta isoform (Homo sapiens) (UniProt P42338); details: Compound concentration 1000.0 nM
[17] = biological target: Sigma non-opioid intracellular receptor 1 (Homo sapiens) (UniProt Q99720); details: Compound concentration 10.0 uM
Sequence of Sigma non-opioid intracellular receptor 1 (Homo sapiens) (Q99720 whole entry): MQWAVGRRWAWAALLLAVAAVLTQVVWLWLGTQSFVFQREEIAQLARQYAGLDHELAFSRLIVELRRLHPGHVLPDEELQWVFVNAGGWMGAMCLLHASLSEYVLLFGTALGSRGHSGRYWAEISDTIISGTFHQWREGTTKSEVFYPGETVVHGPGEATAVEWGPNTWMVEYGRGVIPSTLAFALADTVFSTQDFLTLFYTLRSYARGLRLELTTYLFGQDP

CCc1ccccc1C(=O)Nc1n[nH]c2c(C)c(F)c(C3C(C#N)=C(C)N(C)C(C)=C3C#N)cc12 [BAY-3827] gave a residual activity [1] of 100%, a residual activity [2] of 16% and a residual activity [3] of 55%. The residual activity [4] was 82%, the residual activity [5] was 100% and the residual activity [6] was 100%. It also gave a residual activity [7] of 87%, a residual activity [8] of 77% and a residual activity [9] of 100%. It also gave a residual activity [10] of 90%, a residual activity [11] of 100% and a residual activity [12] of 95%. The residual activity [13] was 71%, the residual activity [14] was 100% and the Ki [15] was 2.84 µM. It also gave a residual activity [16] of 100% and an inhibition [17] of 30.5%.
Molecule CC1=C(C#N)C(c2ccc3c(c2)c(NC(=O)c2ccccc2C)nn3C)C(C#N)=C(C)N1 [BAY-974] has a residual activity [1] of 93%, a residual activity [2] of 74% and a residual activity [3] of 75%. It also gave a residual activity [4] of 100%, a residual activity [5] of 77% and a residual activity [6] of 99%. It also gave a residual activity [7] of 79%, a residual activity [8] of 91% and a residual activity [9] of 88%. It also gave a residual activity [10] of 87%, a residual activity [11] of 100% and a residual activity [12] of 100%. For the same molecule, the residual activity [13] was 97%, the residual activity [14] was 100% and the Ki [15] was 4.47 µM. It also gave a residual activity [16] of 86% and an inhibition [17] of 37.9%.

Reference: ChEMBL document CHEMBL4507319 (2021)
